Like-named read-outs stand apart in the source and are kept apart here.
Tests used:
mKV3.1 = target: T1, mKV3.1 (Mus musculus, UniProt P15388); assay: KV3.1 current inhibition (L929 cells); format: cell-based
T1 construct: expressed in transfected cells; host or cells: L929
Source text: (§1) Cells, Cell lines and Clones. HEK-293 cells stably expressing hKCa2.1, rKCa2.2 and hKCa3.1 were obtained from Khaled Houamed (University of Chicago, Ill.) in 2002 and have been maintained in the Wulff laboratory at the University of California since then. The cloning of hKCa2.3 (19 CAG repeats) and hKCa3.1 has been previously described (Wulff et al., 2000). The hKCa2.3 clone was later stably expressed in COS-7 cells at Aurora Biosciences Corp., San Diego, Calif. […]
(§2) Electrophysiology. […] For manual experiments COS-7, HEK-293 or L929 cells were trypsinized, plated onto poly-L-lysine coated coverslips and typically recorded from between 20 min and 4 h after plating. […] Free Ca^2+ concentrations were calculated with MaxChelator assuming a temperature of 25° C., a pH of 7.2 and an ionic strength of 160 mM. To reduce contaminating currents from native chloride channels in COS-7 cells, KCa2.3 currents were recorded with an internal pipette solution containing (in mM): 145 K^+ aspartate, 2 MgCl2, 10 HEPES, 10 EGTA and 7.4 CaCl2 (500 nM free Ca^2+), pH 7.2, 290-310 mOsm. […] KV2.1, Kv1.3, and KV3.1 currents were recorded in normal Ringer solution with a Ca^2+-free KF-based pipette solution as previously described (Schmitz et al., 2005). HERG (KV11.1) currents were recorded with a 2-step pulse from −80 mV first to 20 mV for 1 sec and then to −50 mV for 1 sec. […]

KV11.1 (hERG) = target: T2, KV11.1 (hERG) (Homo sapiens, UniProt Q12809); assay: KV11.1 (hERG) current inhibition (HEK-293); format: cell-based
T2 construct: host or cells: HEK-293
Source text: as §1, §2

hNaV1.4 = target: T3, hNaV1.4 (Homo sapiens, UniProt P35499); assay: NaV1.4 current inhibition (HEK-293); format: cell-based; conditions: HEK293
T3 construct: host or cells: HEK-293
T3 sequence (P35499 whole entry): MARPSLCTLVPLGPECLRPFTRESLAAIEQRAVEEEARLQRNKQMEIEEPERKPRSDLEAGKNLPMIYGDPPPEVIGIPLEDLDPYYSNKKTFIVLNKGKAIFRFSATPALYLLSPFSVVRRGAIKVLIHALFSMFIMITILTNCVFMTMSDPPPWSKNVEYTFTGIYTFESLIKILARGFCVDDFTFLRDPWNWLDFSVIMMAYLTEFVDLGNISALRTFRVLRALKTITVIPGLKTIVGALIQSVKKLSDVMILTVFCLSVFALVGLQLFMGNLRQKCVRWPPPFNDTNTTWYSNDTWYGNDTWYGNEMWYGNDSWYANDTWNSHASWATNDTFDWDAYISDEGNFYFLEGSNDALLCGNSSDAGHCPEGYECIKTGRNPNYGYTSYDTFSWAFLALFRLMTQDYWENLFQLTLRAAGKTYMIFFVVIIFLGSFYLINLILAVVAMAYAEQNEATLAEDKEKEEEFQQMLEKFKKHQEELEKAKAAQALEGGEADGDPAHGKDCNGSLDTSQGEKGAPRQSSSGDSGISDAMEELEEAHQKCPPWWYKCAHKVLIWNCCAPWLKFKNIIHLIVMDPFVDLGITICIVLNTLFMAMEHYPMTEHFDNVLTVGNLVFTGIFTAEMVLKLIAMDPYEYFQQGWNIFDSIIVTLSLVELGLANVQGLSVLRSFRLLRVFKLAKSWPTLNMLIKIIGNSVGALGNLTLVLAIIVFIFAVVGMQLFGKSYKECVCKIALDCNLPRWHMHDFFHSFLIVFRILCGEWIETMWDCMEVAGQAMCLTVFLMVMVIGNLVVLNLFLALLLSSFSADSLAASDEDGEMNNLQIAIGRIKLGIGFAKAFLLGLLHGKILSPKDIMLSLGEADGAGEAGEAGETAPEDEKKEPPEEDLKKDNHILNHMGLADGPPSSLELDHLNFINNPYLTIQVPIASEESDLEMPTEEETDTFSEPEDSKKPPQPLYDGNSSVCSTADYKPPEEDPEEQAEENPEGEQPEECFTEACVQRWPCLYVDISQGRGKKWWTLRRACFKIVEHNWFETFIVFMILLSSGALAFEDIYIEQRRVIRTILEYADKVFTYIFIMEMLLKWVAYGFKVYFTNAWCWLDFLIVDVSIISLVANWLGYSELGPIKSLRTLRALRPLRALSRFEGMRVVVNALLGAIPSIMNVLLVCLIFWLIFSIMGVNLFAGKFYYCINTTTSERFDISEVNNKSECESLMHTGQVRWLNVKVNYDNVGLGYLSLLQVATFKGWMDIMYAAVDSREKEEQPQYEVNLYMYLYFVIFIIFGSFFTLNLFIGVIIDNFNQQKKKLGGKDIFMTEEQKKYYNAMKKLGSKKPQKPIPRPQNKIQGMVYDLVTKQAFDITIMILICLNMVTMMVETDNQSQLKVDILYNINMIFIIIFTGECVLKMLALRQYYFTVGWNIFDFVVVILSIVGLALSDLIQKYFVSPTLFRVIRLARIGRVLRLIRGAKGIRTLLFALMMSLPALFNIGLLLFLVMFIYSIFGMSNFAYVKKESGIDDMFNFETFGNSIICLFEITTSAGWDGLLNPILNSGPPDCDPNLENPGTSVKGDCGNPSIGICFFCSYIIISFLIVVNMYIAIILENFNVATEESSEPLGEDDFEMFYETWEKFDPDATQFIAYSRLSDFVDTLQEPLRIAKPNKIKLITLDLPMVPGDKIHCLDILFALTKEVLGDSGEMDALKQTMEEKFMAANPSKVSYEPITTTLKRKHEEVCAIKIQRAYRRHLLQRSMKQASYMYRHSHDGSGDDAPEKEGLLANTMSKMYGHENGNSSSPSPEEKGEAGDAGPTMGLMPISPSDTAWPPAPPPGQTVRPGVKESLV

hNaV1.7 = target: T4, hNaV1.7 (Homo sapiens, UniProt Q15858); assay: NaV1.7 current inhibition (CHO cells); format: cell-based
T4 construct: host or cells: CHO (division arrested)
T4 sequence (Q15858 whole entry): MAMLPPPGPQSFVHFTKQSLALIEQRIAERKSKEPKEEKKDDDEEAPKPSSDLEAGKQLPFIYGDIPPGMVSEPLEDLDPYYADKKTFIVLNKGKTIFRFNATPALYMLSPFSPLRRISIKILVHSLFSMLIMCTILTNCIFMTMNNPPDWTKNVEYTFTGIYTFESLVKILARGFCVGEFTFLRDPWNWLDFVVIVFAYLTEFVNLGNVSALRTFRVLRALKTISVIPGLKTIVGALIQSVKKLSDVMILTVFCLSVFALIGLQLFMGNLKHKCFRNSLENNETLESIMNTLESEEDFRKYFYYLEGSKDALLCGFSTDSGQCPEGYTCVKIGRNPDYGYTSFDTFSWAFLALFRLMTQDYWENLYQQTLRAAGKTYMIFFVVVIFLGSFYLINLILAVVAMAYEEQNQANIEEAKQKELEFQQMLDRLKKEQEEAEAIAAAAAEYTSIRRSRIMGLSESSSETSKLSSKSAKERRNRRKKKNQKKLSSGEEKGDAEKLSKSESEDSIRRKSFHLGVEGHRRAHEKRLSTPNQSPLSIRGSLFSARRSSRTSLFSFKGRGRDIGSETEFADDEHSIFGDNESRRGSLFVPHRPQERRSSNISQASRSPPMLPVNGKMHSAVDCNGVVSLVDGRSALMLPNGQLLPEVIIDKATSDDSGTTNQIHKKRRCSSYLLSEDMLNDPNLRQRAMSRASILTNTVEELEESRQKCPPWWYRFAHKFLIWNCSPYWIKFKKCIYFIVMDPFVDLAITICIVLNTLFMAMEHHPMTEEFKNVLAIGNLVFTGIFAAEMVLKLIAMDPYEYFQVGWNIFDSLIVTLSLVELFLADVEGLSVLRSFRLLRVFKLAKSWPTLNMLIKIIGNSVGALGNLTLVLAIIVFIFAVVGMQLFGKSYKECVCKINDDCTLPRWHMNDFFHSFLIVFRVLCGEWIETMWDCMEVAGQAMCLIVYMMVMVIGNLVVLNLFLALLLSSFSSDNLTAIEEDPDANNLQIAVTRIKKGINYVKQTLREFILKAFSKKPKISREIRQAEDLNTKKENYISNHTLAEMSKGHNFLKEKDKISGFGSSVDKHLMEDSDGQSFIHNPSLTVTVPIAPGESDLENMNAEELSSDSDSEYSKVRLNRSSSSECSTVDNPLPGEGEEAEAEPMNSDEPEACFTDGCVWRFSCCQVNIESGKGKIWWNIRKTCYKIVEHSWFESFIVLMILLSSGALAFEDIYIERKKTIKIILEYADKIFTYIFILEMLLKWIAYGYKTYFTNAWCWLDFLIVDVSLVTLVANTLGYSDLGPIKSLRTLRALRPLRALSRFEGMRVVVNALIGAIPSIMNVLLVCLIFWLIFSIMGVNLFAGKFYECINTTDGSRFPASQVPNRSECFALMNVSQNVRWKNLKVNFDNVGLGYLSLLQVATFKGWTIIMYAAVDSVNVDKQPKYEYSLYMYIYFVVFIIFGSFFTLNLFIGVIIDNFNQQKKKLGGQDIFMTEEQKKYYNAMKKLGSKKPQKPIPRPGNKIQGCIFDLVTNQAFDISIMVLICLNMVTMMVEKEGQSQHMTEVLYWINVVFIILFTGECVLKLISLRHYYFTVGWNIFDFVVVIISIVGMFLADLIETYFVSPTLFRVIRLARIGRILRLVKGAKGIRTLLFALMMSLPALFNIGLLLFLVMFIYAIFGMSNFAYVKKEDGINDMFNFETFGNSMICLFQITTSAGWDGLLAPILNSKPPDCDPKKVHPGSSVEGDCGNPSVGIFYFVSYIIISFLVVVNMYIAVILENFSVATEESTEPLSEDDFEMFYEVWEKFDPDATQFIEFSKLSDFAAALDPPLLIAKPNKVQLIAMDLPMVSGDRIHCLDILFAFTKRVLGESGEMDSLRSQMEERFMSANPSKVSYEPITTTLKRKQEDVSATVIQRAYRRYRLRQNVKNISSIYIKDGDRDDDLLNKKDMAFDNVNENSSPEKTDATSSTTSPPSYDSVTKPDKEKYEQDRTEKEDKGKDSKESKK

[1] = Pharmacokinetics in mice (UPLC/MS); format: in vivo, mouse; parameters: distribution from blood into tissue / oral availability: dose or concentration left out as unconfirmed; conditions: for half-life: iv, 10 mg/kg i.v.
Source text: Pharmacokinetics. Twelve week-old male C57BI/6Jmice were purchased from Charles River Laboratories (Wilmington, Mass.) and housed in microisolator cages with rodent chow and autoclaved water ad libitum. All experiments were in accordance with National Institutes of Health guidelines and approved by the University of California, Davis, Institutional Animal Care and Use Committee. […] At various time points after the injection blood was collected into EDTA blood sample collection tubes either from the saphenous vein or by cardiac puncture under deep isoflurane anesthesia. Following the cardiac puncture mice were sacrificed by cutting the heart and then the brain was removed. Individual mice were typically used for 3 times points (2 blood collections from the saphenous vein plus the terminal blood collection). Plasma was separated by centrifugation and plasma and brain samples were stored at −80 °C pending analysis. Brain samples were homogenized in 1 ml of H2O with a Brinkman Kinematica PT 1600E homogenizer and the protein precipitated with 1 ml of acetonitrile. The samples were then centrifuged at 3000 rpm and supernatants concentrated to 1 ml. Plasma and homogenized brain samples were purified using C18 solid phase extraction cartridges (ThermoFisher Scientific, Waltham, Mass., USA) preconditioned with acetonitrile followed by 1 ml of water. The loaded column was washed with 2 ml of water. […] Eluted fractions were dried under nitrogen and reconstituted in acetonitrile. LC/MS analysis was performed with a Waters Acquity UPLC (Waters, New York, N.Y.) equipped with a Acquity UPLC BEH 1.7 μm RP-18 column (Waters, New York, N.Y.) interfaced to a TSQ Quantum Access Max mass spectrometer (MS) (ThermoFisher Scientific, Waltham, Mass., USA). The isocratic mobile phase consisted of 80% acetonitrile and 20% water, both containing 0.1% formic acid with a flow rate of 0.25 ml/min.

T1 sequence (P15388 whole entry): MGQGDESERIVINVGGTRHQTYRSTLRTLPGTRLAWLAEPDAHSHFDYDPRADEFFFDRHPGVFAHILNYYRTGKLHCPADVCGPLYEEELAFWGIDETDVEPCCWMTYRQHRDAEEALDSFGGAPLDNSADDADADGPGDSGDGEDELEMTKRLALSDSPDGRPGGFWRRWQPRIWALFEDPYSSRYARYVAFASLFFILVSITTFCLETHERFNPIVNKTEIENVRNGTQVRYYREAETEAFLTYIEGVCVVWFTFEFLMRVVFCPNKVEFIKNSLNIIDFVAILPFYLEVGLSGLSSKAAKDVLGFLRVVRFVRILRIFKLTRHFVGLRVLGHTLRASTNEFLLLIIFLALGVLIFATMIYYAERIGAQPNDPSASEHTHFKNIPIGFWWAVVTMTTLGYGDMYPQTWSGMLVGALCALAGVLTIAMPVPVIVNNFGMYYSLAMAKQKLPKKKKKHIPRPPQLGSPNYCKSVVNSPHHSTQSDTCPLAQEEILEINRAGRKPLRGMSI

Structure (SMILES): Cc1cc2nc(N)oc2c2ccccc12 [SKA-121, 5-Methylnaphtho[2,1-d]oxazol-2-amine]
- inhibition at 50 µM (mKV3.1; at 50 μM): 46.3 ± 16.5%
- KV11.1 (hERG) % current inhibition (KV11.1 (hERG); at 50 μM): 16.7 ± 9.7%
- inhibition at 50 µM (hNaV1.4; at 50 μM): 25.7 ± 1.3%
- inhibition at 50 µM (hNaV1.7; at 50 μM): 28.5 ± 1.8%
- oral availability ([1]; […] mg/kg oral vs i.v., mice): roughly 25%
- concentration at 1 h ([1]; male, C57Bl/6J, mouse, plasma, 10 mg/kg, […] mg/kg oral, mice, read-out: plasma level at 1 h after oral administration): 1100 ± 100 nM
- concentration at 8 h ([1]; male, C57Bl/6J, mouse, plasma, 10 mg/kg, […] mg/kg oral, mice, read-out: plasma level at 8 h after oral administration): 27 ± 5 nM
- concentration at 5 min ([1]; male, C57Bl/6J, mouse, plasma, intravenous, 10 mg/kg, […] mg/kg i.v., mice, read-out: total plasma concentration at 5 min): 21300 ± 2400 nM
- concentration at 1 h ([1]; male, C57Bl/6J, mouse, plasma, intravenous, 10 mg/kg, […] mg/kg i.v., mice, read-out: total plasma concentration at 1 h): 483 ± 231 nM
- concentration at 4 h ([1]; male, C57Bl/6J, mouse, plasma, intravenous, 10 mg/kg, […] mg/kg i.v., mice, read-out: total plasma concentration at 4 h): 53 ± 44 nM
- half-life ([1]; male, C57Bl/6J, mouse, plasma, 10 mg/kg, mice, read-out: half-life): ~0.333 h
- Kp ([1]; male, C57Bl/6J, mouse, mice, averaged paired brain and plasma samples, read-out: brain/plasma ratio): 3.3 ± 2.9

Structure (SMILES): Cc1cc2sc(N)nc2c2ccccc12 [SKA-111, 5-methylnaphtho[1,2-d]thiazol-2-amine]
- inhibition at 25 µM (mKV3.1; at 25 μM): 32.9 ± 1.3%
- KV11.1 (hERG) % current inhibition (KV11.1 (hERG); at 25 μM): 10.1 ± 7.7%
- inhibition at 25 µM (hNaV1.4; at 25 μM): 33.4 ± 10.5%
- inhibition at 25 µM (hNaV1.7; at 25 μM): 27.5 ± 0.9%
- distribution from blood into tissue ([1]; […] mg/kg i.v., mice): ~2 min
- total brain concentrations probably achieved ([1]; i.p. 100 mg/kg, for hours): 10 to 30 µM
- half-life ([1]; male, C57Bl/6J, mouse, plasma, 10 mg/kg, mice, read-out: elimination half-life (converted)): 4.7 ± 0.6 h
